Laboratory results published in PMC3609778, “Truncated and Helix-Constrained Peptides with High Affinity and Specificity for the cFos Coiled-Coil of AP-1” (PLoS ONE, 2013).
Entries after “also recorded” stand apart in the source; their conditions may differ. Where a SMILES comes first, the peptide text is derived from it. Bridges are numbered along the chain shown (N, C = ends). [ ]: non-standard residue; d: D form. Cha = N[C@@H](CC1CCCCC1)C(=O)O

How the values were obtained:
cJun = assay: CD spectra and thermal denaturation of peptide-cJun mixtures (specificity); format: binding; conditions: equimolar with cJun
Procedure: (§1) To establish if the truncated and constrained peptides retained the interaction specificity of the JunWCANDI parent peptide, peptides capable of interacting with cFos were also incubated at equimolar concentrations with cJun and monitored via CD spectra. […] In addition, a dimer exchange experiment was performed for the most helical peptide 24. Spectra for a cJun-peptide solution and a cFos solution should, upon mixing, generate an averaged spectrum if there was no dimer exchange. […] Spectra for both mixtures can be superimposed (Figure S4).
Supplementary file pone.0059415.s002.tiff: Figure S2 Raw thermal melting data for homo and heterodimeric complexes with cJun for constrained peptides 1 , 2 , 8 , 9, 10 , 11, 12, 17, 20, 22, and 24 . […] (TIFF) Click here for additional data file.
Supplementary file pone.0059415.s003.tiff: Figure S3 CD spectra as MRE both in isolation and as a mixture with cJun. From these raw data it is also clear that no interaction is occurring between constrained peptides and cJun. Rather, specta appear as averages of their homodimeric components (i.e. superimpose with the homomeric averages). We observe no heteromeric helical signal (red) that exceeds the average (black dotted line) of cJun (black) and the constrained peptide (blue), that would be anticipated for a non-interacting pair. (TIFF) Click here for additional data file.
Supplementary file pone.0059415.s005.doc: Table S1 Helical Data obtained via Circular Dichroism. Shown are A) homo and B) heteromeric samples. […] A ratio higher than 1 is generally indicated evidence that a coiled coil has formed, while a ratio of less than 0.9 is taken to indicate the presence of isolated helices. Shown in column two are the calculated fractional helicities taken from the Molar Residue Ellipticity at […]. Fraction helicity (ƒH) can be calculated as ƒH = (θ222−θc)/(θ222∞−θc) where θ222∞ = (−44000+250*T)*(1−k/Nr) and θc = 2220–(53*T). […] Measured helicity for the original JunWCANDI peptide and for the template on which the hydrocarbon constraints have been introduced. […]

[1] = Circular dichroism helicity of peptide in isolation (homotypic); format: physicochemical; conditions: for Homotypic Ɵ222/208 (20ºC): CD ratio, 20 °C; for Homotypic Ɵ222/208 (20ºC) / Fraction helical (ƒH), homotypic: peptide in isolation; for Fraction helical (ƒH), homotypic: from CD molar residue ellipticity at 222 nm
Procedure: (§2) Circular dichroism (CD) spectroscopy was conducted with an Applied Photophysics Chirascan CD spectroploarimeter (Leatherhead, U.K.) using a 200 µL sample in a CD cell with a 1 mm path length (Hellma, Müllheim Germany). Samples contained 150 µM total peptide concentration suspended in 10 mM potassium phosphate and 100 mM potassium fluoride at pH 7. The CD spectra of the homodimeric and heterodimeric complexes were scanned between 300 nm and 190 nm at 20°C (for both pre- and post-melt samples to check for reversibility of unfolding) and at −8°C to assess helical levels and coiled-coil structure (see Figure 4).
(§3) Supplementary file pone.0059415.s005.doc: Table S1 Helical Data obtained via Circular Dichroism. Shown are A) homo and B) heteromeric samples. […] A ratio higher than 1 is generally indicated evidence that a coiled coil has formed, while a ratio of less than 0.9 is taken to indicate the presence of isolated helices. Shown in column two are the calculated fractional helicities taken from the Molar Residue Ellipticity at […]. Fraction helicity (ƒH) can be calculated as ƒH = (θ222−θc)/(θ222∞−θc) where θ222∞ = (−44000+250*T)*(1−k/Nr) and θc = 2220–(53*T). In these equations the wavelength dependent constant k = 2.4 (at 222 nm), Nr = the number of residues, and T = 20 degrees Celsius (293 K). The 222/208 ratio is used to provide evidence on whether the helices are monomeric or are adopting a quaternary structure. Measured helicity for the original JunWCANDI peptide and for the template on which the hydrocarbon constraints have been introduced. […] The N- and C-capping motifs have been removed for the constrained since they are considered to be largely redundant upon their introduction. (DOC) Click here for additional data file.

cFos [2] = biological target: T1, cFos (Homo sapiens, UniProt P01100); assay: Dimer exchange experiments between cJun, cFos and constrained peptide (CD spectra); format: binding; conditions: equimolar mixtures, CD spectra compared with average of constituent spectra
T1 sequence (P01100 whole entry): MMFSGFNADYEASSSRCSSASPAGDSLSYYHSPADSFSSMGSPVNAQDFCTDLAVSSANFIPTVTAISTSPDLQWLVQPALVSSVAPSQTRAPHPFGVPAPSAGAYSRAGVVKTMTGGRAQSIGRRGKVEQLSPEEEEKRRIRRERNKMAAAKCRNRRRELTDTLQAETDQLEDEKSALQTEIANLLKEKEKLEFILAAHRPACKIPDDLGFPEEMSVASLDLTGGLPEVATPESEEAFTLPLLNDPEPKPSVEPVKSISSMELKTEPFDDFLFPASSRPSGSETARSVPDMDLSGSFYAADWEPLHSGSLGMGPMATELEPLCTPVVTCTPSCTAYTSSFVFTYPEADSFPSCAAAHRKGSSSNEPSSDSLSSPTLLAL
Procedure: as §1
(TIFF) Click here for additional data file.

cFos [3] = biological target: T1, cFos; assay: Circular dichroism spectra of peptide-cFos mixtures; format: binding; conditions: mixture with cFos; for Peptide-cFos Ɵ222/208 (20ºC): CD ratio, 20 °C; for Peptide-cFos Fraction helical (ƒH): CD 222 nm, 20°C, 150 µM total peptide
Procedure: as §2
Thermal denaturation data and spectra for the cFos homotypic complex (black), helix constrained peptide (blue), and heteromeric complex (red) were recorded using 200 µL of sample at 150µM total peptide concentration (Figure 4, Figure S1). Next, 100 µL of each solution was mixed and the spectra taken such that the final total peptide concentration was also 150 µM. More experimental procedures can be found in File S1.
as §3

Serum stability = format: in vitro ADME; conditions: 200 µL of 1 mg/ml peptide in water added to 800 µL human serum, 37°C, aliquots 0-24 h, acetonitrile/water 3:1, LC-MS-MS total ion counts
Procedure: Stock solutions of 12 and 24 in both constrained forms and linear forms lacking constraints were prepared in water (1 mg/ml), 200 µL was added to human serum (800 µL) and incubated at 37°C. Aliquots (100 µL) of this diluted serum were removed at 0, 0.5, 1, 2, 4, 16, and 24 hours and a mixture of acetonitrile/water 3∶1 (300 µL) was added to each aliquot before centrifuging (17000 rpm, 15 min). Aliquots (100 µL) of the supernatant were then analysed by LC-MS-MS after passing through a 2.1×150 mm Phenomenex 300A C18 5 µm column at 10% per minute linear gradient from 0–100% acetonitrile over 12 minutes. The amount of starting material was quantified by determination of total ion counts for the m/3+ and m/4+ ion for each peptide (Figure 3).

circular dichroism = conditions: 10 mM K phosphate, 100 mM KF; pH 7; 20 °C; 150 uM
cFos [4] = biological target: T1, cFos; assay: Isothermal Titration Calorimetry (ITC) of peptides with cFos; format: binding; conditions: 20°C
Procedure: Figure 5 Isothermal Titration Calorimetry (ITC) analysis of leucine zipper domain interactions between constrained peptides and cFos. Shown are isotherms for all ten measureable heterodimers (1, 2, 8, 10, 11, 12, 17, 20, 22, and 24) injected into a cell containinginto cFos. The top and bottom panels show, respectively, raw data after baseline correction. During ITC experiments, approximately 200–600 µM of peptide A was injected in 30–40×5 µl batches from the injection syringe into the cell, which contained 10–40 µM cFos. Both partners were in a 10 mM Potassium Phosphate buffer, 100 mM Potassium Fluoride at pH 7. Experiments were undertaken at 20°C. […]
ITC Measurements - ITC measurements were made using a Microcal VP-ITC instrument with data collected and processed using the Origin 7.0 software package. […] The change in thermal power as a function of each injection was automatically recorded using the Microcal Origin software and the raw data were integrated to yield ITC isotherms of heat release per injection as a function of Fos to Jun Molar ratio (Figure 5). […]
where R is the universal molar gas constant (1.9872 cal·K^-1·mol^-1), T is the absolute temperature in Kelvin (293.15 K) and KD is the dissociation constant of binding with units of mol·L^-1. Finally, the entropic contribution (TΔS) to the free energy of binding was calculated using the derived values of ΔH and ΔGbind.

Peptide-cFos Ɵ222/208 (20ºC) (cFos [3])	Peptide-cFos Fraction helical (ƒH) (cFos [3])	Molecule	interaction with cJun (in words) (cJun)	Homotypic Ɵ222/208 (20ºC) [1]	Fraction helical (ƒH), homotypic ([1]; 20°C, 150 µM, pH 7)	helicity (circular dichroism)	also measured
1.00	0.52	CC[C@H](C)[C@@H]1NC(=O)[C@H](Cc2c[nH]cn2)NC(=O)[C@@H](NC(=O)[C@H](CCCNC(=N)N)NC(=O)[C@H](CC(C)C)NC(=O)[C@@H]2CC(=O)NCCCC[C@H](NC(=O)[C@H](CCCNC(=N)N)NC(=O)[C@H](CC(C)C)NC(=O)[C@@H]3CC(=O)NCCCC[C@H](NC(=O)[C@H](CCCNC(=N)N)NC(=O)[C@H](CC4CCCCC4)NC(C)=O)C(=O)N[C@@H](CCC(=O)O)C(=O)N[C@@H]([C@@H](C)CC)C(=O)N[C@@H](Cc4ccc(O)cc4)C(=O)N3)C(=O)N[C@@H](CCCCN)C(=O)N[C@@H](C)C(=O)N[C@@H](CC(N)=O)C(=O)N2)CCCCNC(=O)C[C@@H](C(=O)N[C@@H](CC2CCCCC2)C(N)=O)NC(=O)[C@H](C)NC1=O [compound 24, Ac-cyclo-(3,7; 10,14; 17,21)-ChaR[KEIYD]LR[KKAND]LR[KHIAD]Cha-NH2] (Ac-[Cha]RKEIYDLRKKANDLRKHIAD[Cha]-NH2; lactam 3-7, 10-14, 17-21)	none of the peptides form a stable interaction with cJun	1.08	0.69		dimer exchange on mixing cFos-cFos with cJun-peptide (cFos [2]): dimer exchange did occur; also recorded: dimer exchange has occurred; dimer exchange on mixing cJun-cJun with cFos-peptide (cFos [2]): no change in binding partner for peptide had occurred; also recorded: no change has occurred; stability in human serum (Serum stability): resistant to proteolytic degradation in serum; also recorded: fairly stable in human serum over 4 h; also recorded: much more stable in human serum at 37° than the same peptide lacking the constraints
0.90	0.40	CC[C@H](C)[C@H](NC(=O)[C@H](Cc1c[nH]cn1)NC(=O)[C@@H]1CC(=O)NCCCC[C@H](NC(=O)[C@H](C)NC(=O)[C@H](CCCCN)NC(=O)[C@H](CO)NC(=O)[C@H](CCCNC(=N)N)NC(=O)[C@H](CC2CCCCC2)NC(=O)[C@@H]2CC(=O)NCCCC[C@H](NC(=O)[C@H](CCCCN)NC(=O)[C@H](CC(C)C)NC(C)=O)C(=O)N[C@@H](CCC(=O)O)C(=O)N[C@@H]([C@@H](C)CC)C(=O)N[C@@H](Cc3ccc(O)cc3)C(=O)N2)C(=O)N[C@@H](CCSC)C(=O)N[C@@H](CC(C)C)C(=O)N[C@@H](CCCNC(=N)N)C(=O)N1)C(=O)N[C@@H](C)C(=O)N[C@@H](CCC(N)=O)C(=O)N[C@@H](CC(C)C)C(N)=O [compound 17] (Ac-LKKEIYD[Cha]RSKAKMLRDHIAQL-NH2; lactam 3-7, 13-17)	none of the peptides form a stable interaction with cJun	0.91	0.42		
		CC[C@H](C)[C@@H]1NC(=O)[C@H](CCC(=O)O)NC(=O)[C@@H](NC(=O)[C@H](CCCCN)NC(=O)[C@H](CC(C)C)NC(C)=O)CCCCNC(=O)C[C@@H](C(=O)N[C@@H](CC(C)C)C(=O)N[C@@H](CCCNC(=N)N)C(=O)N[C@H]2CCCCNC(=O)C[C@@H](C(=O)N[C@@H](CC(C)C)C(=O)N[C@@H](CCCNC(=N)N)C(=O)N[C@@H](CCC(=O)O)C(=O)N[C@@H](Cc3c[nH]cn3)C(N)=O)NC(=O)[C@H](CCCCN)NC(=O)[C@H](C)NC(=O)[C@H](CCCCN)NC2=O)NC(=O)[C@H](Cc2ccc(O)cc2)NC1=O (Ac-LKKEIYDLRKKAKDLREH-NH2; lactam 3-7, 10-14)				0.39 frac	
		CC[C@H](C)[C@@H]1NC(=O)[C@H](Cc2c[nH]cn2)NC(=O)[C@@H](NC(=O)[C@H](CCCNC(=N)N)NC(=O)[C@H](CC(C)C)NC(=O)[C@H](CCSC)NC(=O)[C@H](CC(N)=O)NC(=O)[C@H](C)NC(=O)[C@H](CCCCN)NC(=O)[C@H](CO)NC(=O)[C@H](CCCNC(=N)N)NC(=O)[C@H](CC(C)C)NC(=O)[C@@H]2CC(=O)NCCCC[C@H](NC(=O)[C@H](CCCCN)NC(=O)[C@H](CC(C)C)NC(C)=O)C(=O)N[C@@H](CCC(=O)O)C(=O)N[C@@H]([C@@H](C)CC)C(=O)N[C@@H](Cc3ccc(O)cc3)C(=O)N2)CCCCNC(=O)C[C@@H](C(=O)N[C@@H](CC(C)C)C(N)=O)NC(=O)[C@H](C)NC1=O (Ac-LKKEIYDLRSKANMLRKHIADL-NH2; lactam 3-7, 17-21)				0.57 frac	
		Ac-ASTDTLQAETDQLEDEKYALQTEIANLLKEKEKLGAP-NH2 [cFos]		0.59	0.20		

Molecule	Peptide-cFos Ɵ222/208 (20ºC) (cFos [3])	Peptide-cFos Fraction helical (ƒH) (cFos [3])	interaction with cJun (in words) (cJun)	Homotypic Ɵ222/208 (20ºC) [1]	Fraction helical (ƒH), homotypic ([1]; 20°C, 150 µM, pH 7)	helicity (circular dichroism)	also measured
Ac-ASAAELEERAKTLKAEIYELRSKANMLREHIAQLGAP-NH2 [JunWCANDI, reference compound]	0.97	0.42		0.79	0.19		TΔS [ΔH – ΔG] (cFos [4]; calculated according to TΔS = ΔH−ΔG): -6.9 kcal/mol; ΔH (cFos [4]; pH 7): -14.8 kcal/mol; helicity of peptide in isolation ([1]; from CD spectra, 20°C, 150 µM, pH 7): 19%
